Converted amounts (≈) assume the structure as drawn. *1 amine or outer side, *2 acyl side, *3 side chain or, on linkers, in order; H or OH if unused. Where a SMILES comes first, the peptide text is derived from it. Bridges are numbered along the chain shown (N, C = ends). [ ]: non-standard residue; d: D form. The star is where a group is joined. hTyr(3S-OH,4S-OH,3'-OSO3H) = N[C@H](C(=O)O)[C@H](O)[C@@H](O)c1ccc(O)c(OS(=O)(=O)O)c1; Orn(4R-OH,5R-OH) = O=C([C@H](C[C@@H](O)[C@@H](O)N[*:3])N[*:1])[*:2]; Pro(3S-OH,4S-Me) = C[C@H]1CN[C@H](C(=O)O)[C@H]1O; X1 = CCCCCOc1ccc(-c2cc(-c3ccc(C(=O)*)cc3)no2)cc1; Gln(3R-OH) = NC(=O)C[C@@H](O)[C@H](N)C(=O)O; Hyp = O=C(O)[C@@H]1C[C@@H](O)CN1
Tests used:
Cryptococcus neoformans [1] = assay: Antifungal activity against Cryptococcus neoformans ATCC 32719 assessed as inhibition of growth incubated for 24 hrs by two-fold serial dilution method; type: functional
Candida albicans [2] = assay: Antifungal activity against Candida albicans ATCC 76615 assessed as inhibition of growth incubated for 24 hrs by two-fold serial dilution method; type: functional
Aspergillus flavus [3] = assay: Antifungal activity against Aspergillus flavus ATCC 16870 assessed as inhibition of growth incubated for 24 hrs by two-fold serial dilution method; type: functional
Candida tropicalis = assay: Inhibition of chitin synthase extracted from Candida tropicalis ATCC 750 using UDP-GlcNAc as substrate assessed as inhibition rate at 300 ug/ml by TMB based microplate analyzer relative to control; conditions: dose 300.0 µg/ml
Aspergillus fumigatus [4] = assay: Antifungal activity against Aspergillus fumigatus GIMCC 3.19 assessed as inhibition of growth incubated for 24 hrs by two-fold serial dilution method; type: functional
[5] = Inhibition of chitin synthase extracted from Candida tropicalis ATCC 750 using UDP-GlcNAc as substrate assessed as inhibition rate by TMB based microplate analyzer relative to control
Cryptococcus neoformans [6] = assay: Antifungal activity against fluconazole-resistant Cryptococcus neoformans ATCC 32719 assessed as inhibition of fungal growth incubated for 24 to 72 hrs; type: functional; conditions: time 24-72 hrs
Candida albicans [7] = assay: Antifungal activity against Candida albicans ATCC 76615 incubated for 24 hrs by half broth dilution based checkerboard method; type: functional
Aspergillus flavus [8] = assay: Antifungal activity against fluconazole-resistant Aspergillus flavus ATCC 16870 assessed as inhibition of fungal growth incubated for 24 to 72 hrs; type: functional; conditions: time 24-72 hrs
Candida albicans [9] = assay: Antifungal activity against fluconazole-resistant Candida albicans ATCC 76615 assessed as inhibition of fungal growth incubated for 24 to 72 hrs; type: functional; conditions: time 24-72 hrs
Aspergillus fumigatus [10] = assay: Antifungal activity against Aspergillus fumigatus GIMCC 3.19 incubated for 24 hrs by half broth dilution based checkerboard method; type: functional
Aspergillus flavus [11] = assay: Antifungal activity against Aspergillus flavus ATCC 16870 incubated for 24 hrs by half broth dilution based checkerboard method; type: functional
Aspergillus fumigatus [12] = assay: Antifungal activity against fluconazole-resistant Aspergillus fumigatus GIMCC 3.19 assessed as inhibition of fungal growth incubated for 24 to 72 hrs; type: functional; conditions: time 24-72 hrs
Cryptococcus neoformans [13] = assay: Antifungal activity against Cryptococcus neoformans ATCC 32719 incubated for 24 hrs by half broth dilution based checkerboard method; type: functional
Candida albicans [14] = assay: Antifungal activity against micafungin-resistant Candida albicans ATCC 76615 assessed as inhibition of fungal growth incubated for 24 to 72 hrs; type: functional; conditions: time 24-72 hrs

Row | Structure (SMILES) | MIC (Cryptococcus neoformans [1]) [µg/mL] | MIC (Candida albicans [2]) [µg/mL] | MIC (Aspergillus flavus [3]) [µg/mL] | inhibition (Candida tropicalis) [%] | MIC (Aspergillus fumigatus [4]) [µg/mL] | IC50 [5] [µM] | MIC (Cryptococcus neoformans [6]) [µg/mL] | MIC (Candida albicans [7]) [µg/mL] | MIC (Aspergillus flavus [8]) [µg/mL] | MIC (Candida albicans [9]) [µg/mL] | MIC (Aspergillus fumigatus [10]) [µg/mL] | MIC (Aspergillus flavus [11]) [µg/mL] | MIC (Aspergillus fumigatus [12]) [µg/mL] | MIC (Cryptococcus neoformans [13]) [µg/mL] | MIC (Candida albicans [14]) [µg/mL]
1 | CCCNC(=O)C1CCN(CC(=O)Nc2ccc3c(c2)NC(=O)C2(CCNC2=O)C3)CC1 (racemic) | 512 (≈ 1160 µM) | 128 (≈ 290 µM) | 128 (≈ 290 µM) | 22.5 | 256 (≈ 580 µM) |  |  |  |  |  |  |  |  |  | 
2 | COc1ccc(NC(=O)/C=C/C(=O)Nc2ccc3c(c2)NC(=O)C2(CCNC2=O)C3)cc1 (racemic) | 32 (≈ 73.7 µM) | 64 (≈ 147 µM) | 32 (≈ 73.7 µM) | 49.3 | 64 (≈ 147 µM) |  |  |  |  |  |  |  |  |  | 
3 | Cc1ccc(NC(=O)C2CCN(CC(=O)Nc3ccc4c(c3)NC(=O)C3(CCNC3=O)C4)CC2)cc1C (racemic) | 64 (≈ 127 µM) | 32 (≈ 63.5 µM) | 32 (≈ 63.5 µM) | 42.3 | 64 (≈ 127 µM) |  |  |  |  |  |  |  |  |  | 
4 | O=C(/C=C/C(=O)Nc1ccc2c(c1)NC(=O)C1(CCNC1=O)C2)NCc1ccccc1 (racemic) | 16 (≈ 38.2 µM) | 32 (≈ 76.5 µM) | 16 (≈ 38.2 µM) | 49.5 | 64 (≈ 153 µM) |  |  |  |  |  |  |  |  |  | 
5 | O=C(/C=C/C(=O)Nc1ccc2c(c1)NC(=O)C1(CCNC1=O)C2)Nc1ccccc1 (racemic) | 128 (≈ 316 µM) | 64 (≈ 158 µM) | 64 (≈ 158 µM) | 39.6 | 32 (≈ 79.1 µM) |  |  |  |  |  |  |  |  |  | 
6 | CC(C)NC(=O)/C=C/C(=O)Nc1ccc2c(c1)NC(=O)C1(CCNC1=O)C2 (racemic) | 128 (≈ 346 µM) | 128 (≈ 346 µM) | 256 (≈ 691 µM) | 34.6 | 64 (≈ 173 µM) |  |  |  |  |  |  |  |  |  | 
7 | O=C(CN1CCC(C(=O)Nc2ccccc2)CC1)Nc1ccc2c(c1)NC(=O)C1(CCNC1=O)C2 (racemic) | 64 (≈ 135 µM) | 64 (≈ 135 µM) | 32 (≈ 67.3 µM) | 35.8 | 128 (≈ 269 µM) |  |  |  |  |  |  |  |  |  | 
8 | O=C(CN1CCC(C(=O)Nc2ccc(Cl)cc2)CC1)Nc1ccc2c(c1)NC(=O)C1(CCNC1=O)C2 (racemic) | 32 (≈ 62.7 µM) | 64 (≈ 125 µM) | 16 (≈ 31.4 µM) | 41.3 | 16 (≈ 31.4 µM) | 166 |  |  |  |  |  |  |  |  | 
9 | O=C(/C=C/C(=O)Nc1ccc2c(c1)NC(=O)C1(CCNC1=O)C2)Nc1ccc(Cl)cc1 (racemic) | 64 (≈ 146 µM) | 32 (≈ 72.9 µM) | 32 (≈ 72.9 µM) | 56.3 | 32 (≈ 72.9 µM) | 496 |  |  |  |  |  |  |  |  | 
10 | O=C(/C=C/C(=O)Nc1ccc2c(c1)NC(=O)C1(CCNC1=O)C2)Nc1ccc(F)c(Cl)c1 (racemic) | 32 (≈ 70 µM) | 32 (≈ 70 µM) | 64 (≈ 140 µM) | 48.7 | 128 (≈ 280 µM) |  |  |  |  |  |  |  |  |  | 
11 | O=C(CN1CCC(C(=O)Nc2nccs2)CC1)Nc1ccc2c(c1)NC(=O)C1(CCNC1=O)C2 (racemic) | 512 (≈ 1060 µM) | 8 (≈ 16.6 µM) | 32 (≈ 66.3 µM) | 73.9 | 256 (≈ 530 µM) | 157 |  |  |  |  |  |  |  |  | 
12 | Cc1ccc(NC(=O)C2CCN(CC(=O)Nc3ccc4c(c3)NC(=O)C3(CCNC3=O)C4)CC2)cc1 (racemic) | 32 (≈ 65.4 µM) | 32 (≈ 65.4 µM) | 64 (≈ 131 µM) | 45.1 | 128 (≈ 261 µM) | 286 |  |  |  |  |  |  |  |  | 
13 | CCCCNC(=O)C1CCN(CC(=O)Nc2ccc3c(c2)NC(=O)C2(CCNC2=O)C3)CC1 (racemic) | 128 (≈ 281 µM) | 256 (≈ 562 µM) | 64 (≈ 140 µM) | 18.2 | 256 (≈ 562 µM) |  |  |  |  |  |  |  |  |  | 
14 | O=C(/C=C/C(=O)Nc1ccc2c(c1)NC(=O)C1(CCNC1=O)C2)Nc1ccc(F)cc1 (racemic) | 32 (≈ 75.8 µM) | 128 (≈ 303 µM) | 32 (≈ 75.8 µM) | 46.8 | 64 (≈ 152 µM) |  |  |  |  |  |  |  |  |  | 
15 | O=C(CN1CCC(C(=O)Nc2nc3ccccc3s2)CC1)Nc1ccc2c(c1)NC(=O)C1(CCNC1=O)C2 (racemic) | 16 (≈ 30 µM) | 64 (≈ 120 µM) | 32 (≈ 60.1 µM) | 57.7 | 32 (≈ 60.1 µM) | 379 |  |  |  |  |  |  |  |  | 
16 | O=C(CN1CCC(C(=O)Nc2ccc(F)cc2)CC1)Nc1ccc2c(c1)NC(=O)C1(CCNC1=O)C2 (racemic) | 128 (≈ 259 µM) | 128 (≈ 259 µM) | 32 (≈ 64.8 µM) | 79.7 | 64 (≈ 130 µM) |  |  |  |  |  |  |  |  |  | 
17 | O=C(/C=C/C(=O)Nc1ccccc1Br)Nc1ccc2c(c1)NC(=O)C1(CCNC1=O)C2 (racemic) | 16 (≈ 33.1 µM) | 32 (≈ 66.2 µM) | 32 (≈ 66.2 µM) | 66.2 | 32 (≈ 66.2 µM) | 266 |  |  |  |  |  |  |  |  | 
18 | COc1ccc(NC(=O)C2CCN(CC(=O)Nc3ccc4c(c3)NC(=O)C3(CCNC3=O)C4)CC2)cc1 (racemic) | 64 (≈ 127 µM) | 128 (≈ 253 µM) | 32 (≈ 63.3 µM) | 75.9 | 64 (≈ 127 µM) |  |  |  |  |  |  |  |  |  | 
19 | CCCCCNC(=O)/C=C/C(=O)Nc1ccc2c(c1)NC(=O)C1(CCNC1=O)C2 (racemic) | 256 (≈ 642 µM) | 256 (≈ 642 µM) | 128 (≈ 321 µM) | 37.9 | 128 (≈ 321 µM) |  |  |  |  |  |  |  |  |  | 
20 | COc1ccccc1NC(=O)C1CCN(CC(=O)Nc2ccc3c(c2)NC(=O)C2(CCNC2=O)C3)CC1 (racemic) | 32 (≈ 63.3 µM) | 64 (≈ 127 µM) | 32 (≈ 63.3 µM) | 39.7 | 128 (≈ 253 µM) |  |  |  |  |  |  |  |  |  | 
21 | CCCCN(CCCC)C(=O)/C=C/C(=O)Nc1ccc2c(c1)NC(=O)C1(CCNC1=O)C2 (racemic) | 128 (≈ 291 µM) | 256 (≈ 581 µM) | 256 (≈ 581 µM) | 28.2 | 256 (≈ 581 µM) |  |  |  |  |  |  |  |  |  | 
22 | OC(Cn1cncn1)(Cn1cncn1)c1ccc(F)cc1F [FLUCONAZOLE] | 8 (≈ 26.1 µM) | 8 (≈ 26.1 µM) | 4 (≈ 13.1 µM) |  | 4 (≈ 13.1 µM) |  | 256 (≈ 836 µM) | 8 | 256 (≈ 836 µM) | 256 (≈ 836 µM) | 4 | 4 | 256 (≈ 836 µM) | 8 | 
23 | CCCNC(=O)/C=C/C(=O)Nc1ccc2c(c1)NC(=O)C1(CCNC1=O)C2 (racemic) | 128 (≈ 346 µM) | 128 (≈ 346 µM) | 128 (≈ 346 µM) | 36.9 | 64 (≈ 173 µM) |  |  |  |  |  |  |  |  |  | 
24 | CCCCNC(=O)/C=C/C(=O)Nc1ccc2c(c1)NC(=O)C1(CCNC1=O)C2 (racemic) | 128 (≈ 333 µM) | 128 (≈ 333 µM) | 64 (≈ 166 µM) | 35.7 | 256 (≈ 666 µM) |  |  |  |  |  |  |  |  |  | 
25 | O=C(/C=C/C(=O)Nc1nccs1)Nc1ccc2c(c1)NC(=O)C1(CCNC1=O)C2 (racemic) | 32 (≈ 77.8 µM) | 64 (≈ 156 µM) | 64 (≈ 156 µM) | 55.8 | 32 (≈ 77.8 µM) | 441 |  |  |  |  |  |  |  |  | 
26 | CCCCCCNC(=O)C1CCN(CC(=O)Nc2ccc3c(c2)NC(=O)C2(CCNC2=O)C3)CC1 (racemic) | 256 (≈ 529 µM) | 128 (≈ 265 µM) | 256 (≈ 529 µM) | 24 | 128 (≈ 265 µM) |  |  |  |  |  |  |  |  |  | 
27 | CCCN(CCC)C(=O)/C=C/C(=O)Nc1ccc2c(c1)NC(=O)C1(CCNC1=O)C2 (racemic) | 128 (≈ 310 µM) | 128 (≈ 310 µM) | 128 (≈ 310 µM) | 26.3 | 256 (≈ 621 µM) |  |  |  |  |  |  |  |  |  | 
28 | CCCCCOc1ccc(-c2cc(-c3ccc(C(=O)N[C@H]4C[C@@H](O)[C@@H](O)NC(=O)[C@@H]5[C@@H](O)[C@@H](C)CN5C(=O)[C@H]([C@H](O)CC(N)=O)NC(=O)[C@H]([C@H](O)[C@@H](O)c5ccc(O)c(OS(=O)(=O)O)c5)NC(=O)[C@@H]5C[C@@H](O)CN5C(=O)[C@H]([C@@H](C)O)NC4=O)cc3)no2)cc1 [MICAFUNGIN] (X1-[Orn(4R-OH,5R-OH)]T[Hyp][hTyr(3S-OH,4S-OH,3'-OSO3H)][Gln(3R-OH)][Pro(3S-OH,4S-Me)]; lactam 1-C) |  |  |  |  |  |  |  |  |  |  |  |  |  |  | 256 (≈ 202 µM)
